{"source": "paper PMC9892005", "about": "“Principles of mitoribosomal small subunit assembly in eukaryotes” (Nature, 2022)", "key": {"METTL17": {"molecular_target": "T1, METTL17 (Homo sapiens, UniProt Q9H7H0)", "T1 construct": "endogenous METTL17 with C-terminal linker-twinStrep-FLAG-10xHis-TEV-SPOT-3C-GFP tag, eluted with 3C protease", "T1 sequence (Q9H7H0 28-456)": "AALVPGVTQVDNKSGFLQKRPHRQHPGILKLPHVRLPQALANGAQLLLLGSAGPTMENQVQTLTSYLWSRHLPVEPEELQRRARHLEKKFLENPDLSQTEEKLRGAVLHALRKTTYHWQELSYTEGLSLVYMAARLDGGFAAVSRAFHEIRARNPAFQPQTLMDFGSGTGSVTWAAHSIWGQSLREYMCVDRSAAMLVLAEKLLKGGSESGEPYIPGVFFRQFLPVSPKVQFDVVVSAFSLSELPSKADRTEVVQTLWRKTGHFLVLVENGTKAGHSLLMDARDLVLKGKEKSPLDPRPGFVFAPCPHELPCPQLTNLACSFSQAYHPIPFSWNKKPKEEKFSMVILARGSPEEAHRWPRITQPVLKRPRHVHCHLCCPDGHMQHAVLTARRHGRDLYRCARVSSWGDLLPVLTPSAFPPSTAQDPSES", "assay": "cryo-EM structure of native mtSSU assembly intermediates", "assay_type": "binding", "details": "architectural cofactor; METTL17 bound to pre-mtSSU"}, "Rsm22": {"molecular_target": "T2, Rsm22 (Saccharomyces cerevisiae, UniProt P36056)", "T2 construct": "native yeast mtSSU assembly intermediates; untagged Rsm22 in Ccm1-purified states 1 and 2, C-terminal linker-TEV-alfa-3C-mCherry tag (cleaved) in state 3", "T2 sequence (P36056 16-628)": "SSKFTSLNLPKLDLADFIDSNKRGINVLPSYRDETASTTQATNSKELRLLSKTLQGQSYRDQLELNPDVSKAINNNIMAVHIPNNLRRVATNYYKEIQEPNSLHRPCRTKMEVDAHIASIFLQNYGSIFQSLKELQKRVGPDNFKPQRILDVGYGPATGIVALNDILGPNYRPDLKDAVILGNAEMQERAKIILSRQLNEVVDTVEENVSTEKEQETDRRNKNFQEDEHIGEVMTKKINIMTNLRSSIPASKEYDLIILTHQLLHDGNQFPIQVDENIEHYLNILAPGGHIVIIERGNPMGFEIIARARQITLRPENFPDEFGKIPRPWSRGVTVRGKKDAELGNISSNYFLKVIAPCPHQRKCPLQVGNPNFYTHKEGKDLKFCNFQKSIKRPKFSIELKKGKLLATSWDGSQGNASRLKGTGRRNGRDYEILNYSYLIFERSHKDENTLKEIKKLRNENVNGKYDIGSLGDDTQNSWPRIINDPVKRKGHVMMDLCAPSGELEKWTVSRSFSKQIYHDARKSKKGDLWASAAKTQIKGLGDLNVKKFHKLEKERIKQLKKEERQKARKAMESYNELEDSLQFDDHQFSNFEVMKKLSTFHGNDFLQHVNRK", "assay": "cryo-EM structure of native mtSSU assembly intermediates", "assay_type": "binding", "details": "architectural cofactor; Rsm22 bound to pre-mtSSU"}}}
{"smiles": "[S]12[Fe]3[S]4[Fe]1[S]1[Fe]2[S]3[Fe]41", "note": "[Fe4S4 cluster]", "values": [{"measurement": "cryo-EM structure of native mtSSU assembly intermediates", "setting": "METTL17", "result": "identified an Fe4S4 cluster as an architectural cofactor of the Rsm22 (METTL17) protein family"}, {"measurement": "cryo-EM structure of native mtSSU assembly intermediates", "setting": "Rsm22", "result": "identified an Fe4S4 cluster as an architectural cofactor of the Rsm22 (METTL17) protein family"}]}
